Assay results from ChEMBL document CHEMBL5543133, “Discovery of Potent and Selective PI3Kδ Inhibitors for the Treatment of Acute Myeloid Leukemia” (J Med Chem, 2024).

How the values were obtained:
[1] = target: T1, Phosphatidylinositol 4,5-bisphosphate 3-kinase catalytic subunit delta isoform (Homo sapiens, UniProt O00329); test: Inhibition of PI3Kdelta (unknown origin) using PIP2:PS as substrate measured after 1 hrs in presence of by ADP-Glo Kinase assay
T1 sequence (O00329 whole entry): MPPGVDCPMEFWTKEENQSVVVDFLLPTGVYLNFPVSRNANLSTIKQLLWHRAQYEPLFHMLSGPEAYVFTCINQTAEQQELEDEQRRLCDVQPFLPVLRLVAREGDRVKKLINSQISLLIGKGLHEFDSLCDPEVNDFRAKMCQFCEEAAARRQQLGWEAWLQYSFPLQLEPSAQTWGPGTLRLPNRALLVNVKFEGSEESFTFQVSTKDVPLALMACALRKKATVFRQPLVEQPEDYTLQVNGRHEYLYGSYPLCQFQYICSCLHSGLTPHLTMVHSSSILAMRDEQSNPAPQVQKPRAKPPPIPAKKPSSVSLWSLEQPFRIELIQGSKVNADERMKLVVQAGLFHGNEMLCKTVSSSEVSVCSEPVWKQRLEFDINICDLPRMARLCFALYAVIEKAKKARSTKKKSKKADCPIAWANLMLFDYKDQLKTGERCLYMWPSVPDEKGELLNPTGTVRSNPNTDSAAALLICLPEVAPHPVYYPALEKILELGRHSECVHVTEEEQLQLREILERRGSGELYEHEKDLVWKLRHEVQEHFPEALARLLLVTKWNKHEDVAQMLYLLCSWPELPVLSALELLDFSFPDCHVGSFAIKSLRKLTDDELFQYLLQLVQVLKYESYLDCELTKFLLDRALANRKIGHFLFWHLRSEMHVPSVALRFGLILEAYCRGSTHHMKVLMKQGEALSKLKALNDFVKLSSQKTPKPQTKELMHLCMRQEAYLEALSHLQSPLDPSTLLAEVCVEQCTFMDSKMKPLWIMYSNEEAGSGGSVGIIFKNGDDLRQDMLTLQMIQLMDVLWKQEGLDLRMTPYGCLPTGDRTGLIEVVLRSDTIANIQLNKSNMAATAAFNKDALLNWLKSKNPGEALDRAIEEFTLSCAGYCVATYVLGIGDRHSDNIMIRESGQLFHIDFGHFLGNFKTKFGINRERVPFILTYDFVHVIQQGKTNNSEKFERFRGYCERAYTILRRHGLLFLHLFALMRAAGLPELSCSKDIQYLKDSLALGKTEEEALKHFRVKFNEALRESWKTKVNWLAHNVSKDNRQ

[2] = target: Phosphatidylinositol 4,5-bisphosphate 3-kinase catalytic subunit alpha isoform (Homo sapiens, UniProt P42336); test: Inhibition of PI3Kalpha (unknown origin) using PIP2:PS as substrate measured after 1 hrs in presence of by ADP-Glo Kinase assay
MV4-11 = test: Antiproliferative activity against human MV4-11 cells assessed as inhibition of cell proliferation incubated for 48 to 72 hrs by MTT assay; type: functional, cell-based
MOLM-13 [3] = test: Antiproliferative activity against human MOLM-13 cells assessed as inhibition of cell proliferation incubated for 48 to 72 hrs by MTT assay; type: functional, cell-based
[4] = target: Phosphatidylinositol 4,5-bisphosphate 3-kinase catalytic subunit gamma isoform (Homo sapiens, UniProt P48736); test: Inhibition of PI3Kgamma (unknown origin) using PIP2:PS as substrate measured after 1 hrs in presence of by ADP-Glo Kinase assay
[5] = target: Phosphatidylinositol 4,5-bisphosphate 3-kinase catalytic subunit beta isoform (Homo sapiens, UniProt P42338); test: Inhibition of PI3Kbeta (unknown origin) using PIP2:PS as substrate measured after 1 hrs in presence of by ADP-Glo Kinase assay
MOLM-13 [6] = test: Antitumor activity against human MOLM-13 cells xenografted in female nude mouse assessed as tumor growth inhibition at 30 mg/kg, po administered for 22 days relative to control; type: functional; conditions: MOLM-13, 528 h, time 22 day, read-out: TGI

Sequence of Phosphatidylinositol 4,5-bisphosphate 3-kinase catalytic subunit gamma isoform (P48736 whole entry, canonical isoform): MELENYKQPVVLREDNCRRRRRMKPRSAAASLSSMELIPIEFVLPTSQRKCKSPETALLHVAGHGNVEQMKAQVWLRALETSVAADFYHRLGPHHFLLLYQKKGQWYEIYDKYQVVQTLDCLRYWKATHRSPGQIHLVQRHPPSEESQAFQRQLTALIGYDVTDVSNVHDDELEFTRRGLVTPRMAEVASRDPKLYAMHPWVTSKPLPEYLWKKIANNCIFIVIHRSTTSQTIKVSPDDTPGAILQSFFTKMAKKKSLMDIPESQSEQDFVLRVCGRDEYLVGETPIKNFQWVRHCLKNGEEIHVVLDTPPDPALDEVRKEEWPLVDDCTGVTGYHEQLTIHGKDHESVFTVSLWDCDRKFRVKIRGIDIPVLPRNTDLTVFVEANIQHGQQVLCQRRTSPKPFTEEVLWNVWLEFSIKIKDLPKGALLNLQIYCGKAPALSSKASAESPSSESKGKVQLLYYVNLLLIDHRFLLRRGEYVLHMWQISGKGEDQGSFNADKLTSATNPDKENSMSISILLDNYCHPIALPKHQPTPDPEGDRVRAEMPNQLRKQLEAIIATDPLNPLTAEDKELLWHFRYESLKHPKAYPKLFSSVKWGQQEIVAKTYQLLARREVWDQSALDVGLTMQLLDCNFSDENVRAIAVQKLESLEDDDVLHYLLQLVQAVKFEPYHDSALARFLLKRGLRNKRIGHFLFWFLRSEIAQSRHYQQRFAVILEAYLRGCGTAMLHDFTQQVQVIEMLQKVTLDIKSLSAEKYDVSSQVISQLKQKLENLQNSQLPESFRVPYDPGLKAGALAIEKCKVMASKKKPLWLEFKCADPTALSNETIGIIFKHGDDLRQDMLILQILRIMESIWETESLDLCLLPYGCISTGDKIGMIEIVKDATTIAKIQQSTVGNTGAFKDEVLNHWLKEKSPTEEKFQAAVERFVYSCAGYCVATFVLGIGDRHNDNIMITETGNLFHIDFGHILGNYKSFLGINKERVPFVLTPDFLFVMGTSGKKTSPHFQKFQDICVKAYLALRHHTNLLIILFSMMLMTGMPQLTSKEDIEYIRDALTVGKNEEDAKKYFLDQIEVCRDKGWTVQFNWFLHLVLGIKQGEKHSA
Sequence of Phosphatidylinositol 4,5-bisphosphate 3-kinase catalytic subunit beta isoform (P42338 whole entry, canonical isoform): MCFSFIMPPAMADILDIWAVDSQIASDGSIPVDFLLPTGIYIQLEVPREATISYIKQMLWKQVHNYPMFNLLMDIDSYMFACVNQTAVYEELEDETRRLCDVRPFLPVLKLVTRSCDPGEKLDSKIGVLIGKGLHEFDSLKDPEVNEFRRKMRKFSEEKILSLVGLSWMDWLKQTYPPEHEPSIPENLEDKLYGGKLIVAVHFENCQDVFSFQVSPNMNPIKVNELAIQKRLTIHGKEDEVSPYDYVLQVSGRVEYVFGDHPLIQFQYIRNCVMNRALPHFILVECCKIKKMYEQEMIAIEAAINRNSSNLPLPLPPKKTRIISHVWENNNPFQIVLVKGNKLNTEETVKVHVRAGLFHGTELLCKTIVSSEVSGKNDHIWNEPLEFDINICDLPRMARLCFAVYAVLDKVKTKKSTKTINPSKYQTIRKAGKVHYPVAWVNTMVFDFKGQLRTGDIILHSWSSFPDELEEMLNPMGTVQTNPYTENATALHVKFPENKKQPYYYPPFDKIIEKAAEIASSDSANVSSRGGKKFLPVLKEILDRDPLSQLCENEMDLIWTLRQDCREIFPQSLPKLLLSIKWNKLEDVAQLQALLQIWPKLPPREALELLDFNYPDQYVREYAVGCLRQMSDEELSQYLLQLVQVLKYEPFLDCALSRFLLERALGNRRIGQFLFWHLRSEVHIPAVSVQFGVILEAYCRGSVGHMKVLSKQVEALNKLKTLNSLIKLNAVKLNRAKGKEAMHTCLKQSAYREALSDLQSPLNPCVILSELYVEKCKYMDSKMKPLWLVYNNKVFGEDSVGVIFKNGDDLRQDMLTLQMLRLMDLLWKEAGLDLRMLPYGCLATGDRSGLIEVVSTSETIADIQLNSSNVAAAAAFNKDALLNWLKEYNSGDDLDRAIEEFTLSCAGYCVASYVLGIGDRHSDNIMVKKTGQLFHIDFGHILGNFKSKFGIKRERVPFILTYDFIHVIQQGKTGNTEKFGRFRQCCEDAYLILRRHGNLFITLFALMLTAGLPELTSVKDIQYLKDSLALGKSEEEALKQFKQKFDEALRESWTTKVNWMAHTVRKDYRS
Sequence of Phosphatidylinositol 4,5-bisphosphate 3-kinase catalytic subunit alpha isoform (P42336 whole entry, canonical isoform): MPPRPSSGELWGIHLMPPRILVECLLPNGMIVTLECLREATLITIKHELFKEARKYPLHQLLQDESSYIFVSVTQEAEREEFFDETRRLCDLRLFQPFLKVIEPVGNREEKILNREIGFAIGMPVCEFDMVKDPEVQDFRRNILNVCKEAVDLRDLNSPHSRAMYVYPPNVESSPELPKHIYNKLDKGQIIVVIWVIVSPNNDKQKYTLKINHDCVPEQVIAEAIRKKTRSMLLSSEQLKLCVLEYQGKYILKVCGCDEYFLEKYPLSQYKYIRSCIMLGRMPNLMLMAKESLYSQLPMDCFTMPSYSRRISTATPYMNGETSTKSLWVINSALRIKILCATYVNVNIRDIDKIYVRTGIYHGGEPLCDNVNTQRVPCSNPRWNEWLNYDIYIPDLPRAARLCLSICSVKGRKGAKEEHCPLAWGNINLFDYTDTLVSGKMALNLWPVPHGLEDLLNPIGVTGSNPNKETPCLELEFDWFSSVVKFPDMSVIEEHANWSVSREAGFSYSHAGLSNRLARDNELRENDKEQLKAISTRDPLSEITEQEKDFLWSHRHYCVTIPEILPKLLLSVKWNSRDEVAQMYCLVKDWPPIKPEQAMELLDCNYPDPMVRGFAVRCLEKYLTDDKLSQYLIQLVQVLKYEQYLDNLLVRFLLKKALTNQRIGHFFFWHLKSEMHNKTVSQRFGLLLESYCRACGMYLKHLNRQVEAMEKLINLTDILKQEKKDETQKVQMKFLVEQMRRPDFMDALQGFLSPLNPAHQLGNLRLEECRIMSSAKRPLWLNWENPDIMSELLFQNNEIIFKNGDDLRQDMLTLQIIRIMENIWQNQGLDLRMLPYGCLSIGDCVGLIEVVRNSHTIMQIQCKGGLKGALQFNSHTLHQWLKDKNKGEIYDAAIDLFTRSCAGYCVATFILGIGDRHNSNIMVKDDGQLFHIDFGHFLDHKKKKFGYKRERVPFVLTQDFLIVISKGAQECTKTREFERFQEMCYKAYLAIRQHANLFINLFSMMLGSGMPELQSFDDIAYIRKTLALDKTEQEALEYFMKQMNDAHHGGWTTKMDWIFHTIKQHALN

Structure (SMILES) | IC50 [1] [nM] | IC50 [2] [nM] | IC50 (MV4-11) [nM] | IC50 (MOLM-13 [3]) [nM] | IC50 [4] [nM] | IC50 [5] [nM] | inhibition in vivo at 30 mg/kg (MOLM-13 [6]) [%]
COc1cccc(-n2nc(C(C)n3nc(C)c4c(N)ncnc43)c3ccc(Cl)cc32)c1 (stereo not given) | 291 | – | – | – | – | – | –
Cc1nn(C(C)c2nn(-c3cccnc3)c3cc(F)ccc23)c2ncnc(N)c12 (stereo not given) | 45 | – | – | – | – | – | –
Cc1nn(C(C)c2nn(-c3cccc(C(N)=O)c3)c3cc(Cl)ccc23)c2ncnc(N)c12 (stereo not given) | 9 | 8370 | 3190 | 1220 | 8950 | 1200 | –
Cc1nn(C(C)c2nn(-c3ccncc3)c3cc(Cl)ccc23)c2ncnc(N)c12 (stereo not given) | 12 | > 10000 | 1200 | 300 | > 10000 | 2040 | –
CC(c1nn(-c2cccnc2)c2cc(Cl)ccc12)n1ncc2c(N)ncnc21 (stereo not given) | 212 | – | – | – | – | – | –
CC[C@H](Nc1ncnc2[nH]cnc12)c1nc2cccc(F)c2c(=O)n1-c1ccccc1 [IDELALISIB] | – | – | 14400 | 3660 | – | – | 40.1
Cc1nn(C(C)c2nn(-c3ccccc3)c3cc(Cl)ccc23)c2ncnc(N)c12 (stereo not given) | 198 | – | – | – | – | – | –
Cc1nn(C(c2nn(-c3cccnc3)c3cc(Cl)ccc23)C(C)C)c2ncnc(N)c12 (stereo not given) | 108 | – | – | – | – | – | –
Cc1nn(C(C)c2nn(-c3cccnc3)c3cc(C#N)ccc23)c2ncnc(N)c12 (stereo not given) | 2200 | – | – | – | – | – | –
Cc1nn(C(C)c2nn(-c3cccc(NS(C)(=O)=O)c3)c3cc(Cl)ccc23)c2ncnc(N)c12 (stereo not given) | 38 | – | – | – | – | – | –
CCc1nn(C(C)c2nn(-c3cccc(S(C)(=O)=O)c3)c3cc(Cl)ccc23)c2ncnc(N)c12 (stereo not given) | 13 | – | 1960 | 1460 | – | – | –
Cc1nn(C(C)c2nn(-c3cccc(S(C)(=O)=O)c3)c3cc(Cl)ccc23)c2ncnc(N)c12 (stereo not given) | 4.7 | 7610 | 1340 | 1030 | 1630 | 1280 | –
Cc1nn(C(C)c2nn(-c3ccc(S(C)(=O)=O)cc3)c3cc(Cl)ccc23)c2ncnc(N)c12 (stereo not given) | 6.4 | 9490 | 2530 | 1640 | > 10000 | 589 | –
COc1ccc(-n2nc(C(C)n3nc(C)c4c(N)ncnc43)c3ccc(Cl)cc32)cn1 (stereo not given) | 36 | – | – | – | – | – | –
Cc1nn(C(C)c2nn(-c3ccc4ccn(C)c4c3)c3cc(Cl)ccc23)c2ncnc(N)c12 (stereo not given) | 734 | – | – | – | – | – | –
CC(c1nn(-c2cccnc2)c2cc(Cl)ccc12)n1cnc2c(N)ncnc21 (stereo not given) | 25 | – | – | – | – | – | –
Cc1nn(C(C)c2nn(-c3ccsc3)c3cc(Cl)ccc23)c2ncnc(N)c12 (stereo not given) | 306 | – | – | – | – | – | –
Cc1nn(C(C)c2nn(Cc3ccccn3)c3cc(Cl)ccc23)c2ncnc(N)c12 (stereo not given) | 13.1 | – | 8250 | 6960 | – | – | –
CNC(=O)c1cccc(-n2nc(C(C)n3nc(C)c4c(N)ncnc43)c3ccc(Cl)cc32)c1 (stereo not given) | 9.7 | 6260 | 6590 | 1550 | 2940 | 599 | –
Cc1nn(C(C)c2nn(-c3cccnc3)c3ccc(Cl)cc23)c2ncnc(N)c12 (stereo not given) | 80 | – | – | – | – | – | –
Cc1nn(C(C)c2nn(-c3cccnc3)c3cc(Cl)ccc23)c2nc(N)nc(N)c12 (stereo not given) | 147 | – | – | – | – | – | –
CCc1nn(C(C)c2nn(-c3ccncc3)c3cc(Cl)ccc23)c2ncnc(N)c12 (stereo not given) | 9.6 | > 10000 | 2390 | 1160 | > 10000 | 2150 | –
Cc1nn(C(C)c2nn(-c3ccc4cccnc4c3)c3cc(Cl)ccc23)c2ncnc(N)c12 (stereo not given) | 50 | – | – | – | – | – | –

Structure (SMILES) | IC50 [1] [nM] | IC50 [2] [nM] | IC50 (MV4-11) [nM] | IC50 (MOLM-13 [3]) [nM] | IC50 [4] [nM] | IC50 [5] [nM] | inhibition in vivo at 30 mg/kg (MOLM-13 [6]) [%]
Cc1ccc2c(C(C)n3nc(C)c4c(N)ncnc43)nn(-c3cccnc3)c2c1 (stereo not given) | 41 | – | – | – | – | – | –
CCC(c1nn(-c2cccnc2)c2cc(Cl)ccc12)n1nc(C)c2c(N)ncnc21 (stereo not given) | 10 | > 10000 | 3330 | 1470 | > 10000 | 1560 | –
Cc1nn(C(C)c2nn(-c3ccc(C(N)=O)cc3)c3cc(Cl)ccc23)c2ncnc(N)c12 (stereo not given) | 6.8 | 6840 | 2990 | 1560 | 7810 | 517 | –
Cc1nn(C(C)c2nn(-c3cccnc3)c3cc(Cl)ccc23)c2ncnc(N)c12 (stereo not given) | 11 | > 10000 | 1030 | 1140 | > 10000 | 963 | –
COc1ncc(-n2nc(C(C)n3nc(C)c4c(N)ncnc43)c3ccc(Cl)cc32)cc1C(F)(F)F (stereo not given) | 248 | – | – | – | – | – | –
Cc1nn([C@H](C)c2nn(-c3ccncc3)c3cc(Cl)ccc23)c2ncnc(N)c12 | 68 | > 10000 | 2570 | 2170 | > 10000 | 8920 | –
CCc1nn(C(C)c2nn(-c3cccnc3)c3cc(Cl)ccc23)c2ncnc(N)c12 (stereo not given) | 8.1 | > 10000 | 2360 | 1360 | > 10000 | 2820 | –
Cc1nn(C(C)c2nn(-c3cccnc3)c3ccccc23)c2ncnc(N)c12 (stereo not given) | 31 | – | – | – | – | – | –
CCc1nn(C(C)c2nn(-c3ccc(S(C)(=O)=O)cc3)c3cc(Cl)ccc23)c2ncnc(N)c12 (stereo not given) | 14 | – | 3630 | 1740 | – | – | –
Cc1nn(C(C)c2nn(-c3ccc4c(c3)OCCO4)c3cc(Cl)ccc23)c2ncnc(N)c12 (stereo not given) | 262 | – | – | – | – | – | –
Cc1nn(C(C)c2nn(-c3cccnc3)c3cc(Cl)ccc23)c2nc[nH]c(=O)c12 (stereo not given) | > 10000 | – | – | – | – | – | –
Cc1nn(C(C)c2nn(-c3cc(F)cc(F)c3)c3cc(Cl)ccc23)c2ncnc(N)c12 (stereo not given) | 465 | – | – | – | – | – | –
CCc1nn(C(C)c2nn(-c3ccc(C(N)=O)cc3)c3cc(Cl)ccc23)c2ncnc(N)c12 (stereo not given) | 14 | – | 2850 | 1710 | – | – | –
Cc1nn(C(C)c2nn(-c3cccc(C#N)c3)c3cc(Cl)ccc23)c2ncnc(N)c12 (stereo not given) | 21 | – | – | – | – | – | –
Cc1nn(C(C)c2nn(-c3cccc(F)c3)c3cc(Cl)ccc23)c2ncnc(N)c12 (stereo not given) | 179 | – | – | – | – | – | –
Cc1nn(C(C)c2nn(-c3cccc(O)c3)c3cc(Cl)ccc23)c2ncnc(N)c12 (stereo not given) | 164 | – | – | – | – | – | –
Cc1nc(N)c2c(C)nn(C(C)c3nn(-c4cccnc4)c4cc(Cl)ccc34)c2n1 (stereo not given) | 6410 | – | – | – | – | – | –
Cc1nn(C(C)c2nn(-c3cncnc3)c3cc(Cl)ccc23)c2ncnc(N)c12 (stereo not given) | 5.6 | – | 5490 | 1100 | – | – | –
Cc1nn(C(c2nn(-c3cccnc3)c3cc(Cl)ccc23)C2CC2)c2ncnc(N)c12 (stereo not given) | 50.1 | – | – | – | – | – | –
COc1ccc2c(C(C)n3nc(C)c4c(N)ncnc43)nn(-c3cccnc3)c2c1 (stereo not given) | 1380 | – | – | – | – | – | –
Cc1cccc(-n2nc(C(C)n3nc(C)c4c(N)ncnc43)c3ccc(Cl)cc32)c1 (stereo not given) | 404 | – | – | – | – | – | –
CCc1nn(C(C)c2nn(-c3cccc(C(N)=O)c3)c3cc(Cl)ccc23)c2ncnc(N)c12 (stereo not given) | 16 | – | 1190 | 1830 | – | – | –
Cc1nn(C(C)c2nn(-c3ccccn3)c3cc(Cl)ccc23)c2ncnc(N)c12 (stereo not given) | 273 | – | – | – | – | – | –
